Laboratory results published in PMC11785640, “Structure-based inhibition of acetylcholinesterase and butyrylcholinesterase with 2-Aryl-6-carboxamide benzoxazole derivatives: synthesis, enzymatic assay, and in silico studies” (Molecular Diversity, 2024).

Experiments:
AChE = AChE (Electrophorus electricus, UniProt O42275); assay: biochemical; type: biochemical; conditions: for Ki: from Lineweaver-Burk graphs, mean ± SD, triplicate; for Selectivity index (AChE/BChE): ratio AChE/BChE
Description: (§1) These analogs were dissolved in DMSO at an initial concentration of 1 mg/mL. Around 1% of DMSO was present in the final reaction mixture. Acetylthiocholine iodide (AChI)/butyrylcholine iodide (BChI) were used as substrates for enzymatic reactions. […] The mixture was incubated at 20 °C for 20 min. Then, 50 µL of 5,5’-dithio-bis 2-nitro-benzoic acid (DTNB, 0.5 mM) and AChI/BChI were added and enzymatic reactions were initiated.
(§2) Lineweaver-Burk graphs were used for the calculation of Ki and the other parameters as described in prior studies. The Ki values were taken out from this graph. All analyses were conducted independently in triplicate, and result data are expressed as mean values ± SD [59].

BChE = BChE (Equus caballus, UniProt P81908); assay: biochemical; type: biochemical; conditions: for Ki: from Lineweaver-Burk graphs, mean ± SD, triplicate
Sequence of BChE (P81908 whole entry): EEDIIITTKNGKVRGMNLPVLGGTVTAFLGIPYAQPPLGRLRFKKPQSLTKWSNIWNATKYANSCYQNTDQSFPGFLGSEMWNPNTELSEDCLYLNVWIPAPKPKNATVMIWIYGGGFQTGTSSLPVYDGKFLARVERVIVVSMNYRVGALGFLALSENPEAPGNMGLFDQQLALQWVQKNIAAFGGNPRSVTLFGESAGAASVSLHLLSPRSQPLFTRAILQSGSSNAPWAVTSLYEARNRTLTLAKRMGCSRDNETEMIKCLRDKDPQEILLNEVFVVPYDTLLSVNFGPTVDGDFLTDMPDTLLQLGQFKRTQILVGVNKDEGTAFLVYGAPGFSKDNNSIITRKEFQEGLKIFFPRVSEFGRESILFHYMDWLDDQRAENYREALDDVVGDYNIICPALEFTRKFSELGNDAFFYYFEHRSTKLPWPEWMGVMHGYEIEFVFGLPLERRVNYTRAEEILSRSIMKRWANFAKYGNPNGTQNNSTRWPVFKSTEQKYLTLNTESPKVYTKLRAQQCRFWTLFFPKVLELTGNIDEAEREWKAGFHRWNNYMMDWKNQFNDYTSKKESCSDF
Description: as §1, §2

Sequence of AChE (O42275 24-633): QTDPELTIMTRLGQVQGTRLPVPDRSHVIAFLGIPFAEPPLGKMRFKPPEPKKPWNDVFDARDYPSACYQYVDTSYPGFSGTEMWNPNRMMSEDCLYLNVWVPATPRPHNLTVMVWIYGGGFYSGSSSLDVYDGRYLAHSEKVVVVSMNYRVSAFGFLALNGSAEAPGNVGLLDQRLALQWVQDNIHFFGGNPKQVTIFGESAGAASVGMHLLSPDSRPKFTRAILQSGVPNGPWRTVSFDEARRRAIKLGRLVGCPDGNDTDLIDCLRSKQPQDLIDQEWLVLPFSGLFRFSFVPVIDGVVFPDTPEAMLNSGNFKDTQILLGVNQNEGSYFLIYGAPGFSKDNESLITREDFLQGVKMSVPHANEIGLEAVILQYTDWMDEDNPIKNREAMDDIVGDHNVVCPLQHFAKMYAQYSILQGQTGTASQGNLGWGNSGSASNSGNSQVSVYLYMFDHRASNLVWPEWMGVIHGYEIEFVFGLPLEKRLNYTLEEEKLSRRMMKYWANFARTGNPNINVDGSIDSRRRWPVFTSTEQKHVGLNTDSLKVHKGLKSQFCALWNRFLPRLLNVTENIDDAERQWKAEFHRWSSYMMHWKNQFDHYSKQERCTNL

Structure (SMILES)	IC50 (AChE)	Ki (AChE)	Selectivity index (AChE/BChE) (AChE)	IC50 (BChE)	Ki (BChE)	type of inhibition, AChE (AChE)	type of inhibition, BChE (BChE)
CN(C)C(=O)c1ccc2nc(-c3cccc4ccccc34)oc2c1 [Compound 19, N,Ndimethyl-2-(naphthalen-1-yl)benzo[d]oxazole-6-carboxamide]	39.6 nM	38.8 ± 2.96 nM	0.32	142 nM	121 ± 15.5 nM	–	–
O=C(c1ccc2nc(-c3ccc[nH]3)oc2c1)N1CCOCC1 [Compound 36, (2-(1 H-pyrrol-2-yl)benzo[d]oxazol-6-yl)(morpholino)methanone]	12.6 nM	7.74 ± 0.75 nM	0.38	25.4 nM	20.3 ± 1.56 nM	mixed-type	mixed-type
CN(C)C(=O)c1ccc2nc(-c3ccncc3)oc2c1 [Compound 25, N,Ndimethyl-2-(pyridin-4-yl)benzo[d]oxazole-6-carboxamide]	54.7 nM	85.3 ± 11.2 nM	1.28	93.6 nM	66.4 ± 13.6 nM	–	–
CN(C)C(=O)c1ccc2nc(-c3ccc(-c4ccccc4)cc3)oc2c1 [Compound 13, 2-([1,1’-Biphenyl]-4-yl)-N,N-dimethylbenzo[d]oxazole-6-carboxamide]	33.2 nM	29.8 ± 1.02 nM	0.46	63.5 nM	65.4 ± 14.1 nM	–	–
CCCN(CCC)C(=O)c1ccc2nc(-c3ccccc3)oc2c1 [Compound 9, 2-Phenyl-N,Ndipropylbenzo[d]oxazole-6-carboxamide]	48.8 nM	59.4 ± 3.69 nM	0.53	116 nM	111 ± 4.67 nM	–	–
CCN(CC)C(=O)c1ccc2nc(-c3ccc[nH]3)oc2c1 [Compound 32, N,N-diethyl-2-(1 H-pyrrol-2-yl)benzo[d]oxazole-6-carboxamide]	41.7 nM	47.5 ± 9.8 nM	2.07	30.1 nM	23 ± 1.52 nM	–	–
CCCN(CCC)C(=O)c1ccc2nc(-c3cccs3)oc2c1 [Compound 45, N,Ndipropyl-2-(thiophen-2-yl)benzo[d]oxazole-6-carboxamide]	30.1 nM	21.8 ± 1.45 nM	0.30	85.2 nM	72.5 ± 12.6 nM	–	–
O=C(c1ccc2nc(-c3ccncc3)oc2c1)N1CCCC1 [Compound 28]	40.5 nM	47.9 ± 4.7 nM	0.91	57.2 nM	52.9 ± 11.7 nM	–	–
O=C(c1ccc2nc(-c3ccncc3)oc2c1)N1CCOCC1 [Compound 30, Morpholino(2-(pyridin-4-yl)benzo[d]oxazol-6-yl)methanone]	24.3 nM	18.3 ± 4.37 nM	0.40	49.7 nM	45.4 ± 3.04 nM	–	–
O=C(c1ccc2nc(-c3ccccc3)oc2c1)N1CCCCC1 [Compound 11]	21.4 nM	18.6 ± 2.58 nM	0.25	61.2 nM	74.4 ± 16.9 nM	–	–
CCN(CC)C(=O)c1ccc2nc(-c3ccncc3)oc2c1 [Compound 26, N,Ndiethyl-2-(pyridin-4-yl)benzo[d]oxazole-6-carboxamide]	48.1 nM	83.1 ± 1.33 nM	1.53	76.2 nM	54.4 ± 4.85 nM	–	–
CN(C)C(=O)c1ccc2nc(-c3ccco3)oc2c1 [Compound 37, 2-(Furan-2-yl)-N,N-dimethylbenzo[d]oxazole-6-carboxamide]	46.4 nM	45.7 ± 4.3 nM	0.37	147 nM	123 ± 15.3 nM	–	–
CCCN(CCC)C(=O)c1ccc2nc(-c3ccc[nH]3)oc2c1 [Compound 33, N,N-dipropyl-2-(1 H-pyrrol-2-yl)benzo[d]oxazole-6-carboxamide]	40.2 nM	26.1 ± 3.35 nM	0.68	55.5 nM	38.5 ± 8.43 nM	–	–
CN(C)C(=O)c1ccc2nc(-c3ccccc3)oc2c1 [Compound 7, N,N -dimethyl-2-phenylbenzo[d]oxazole-6-carboxamide]	32.9 nM	23 ± 1.7 nM	0.45	65.8 nM	50.7 ± 6.43 nM	–	–
O=C(c1ccc2nc(-c3ccco3)oc2c1)N1CCCC1 [Compound 40]	52.1 nM	34.9 ± 7.28 nM	0.36	101 nM	95.6 ± 20.2 nM	–	–
O=C(c1ccc2nc(-c3cccs3)oc2c1)N1CCCC1 [Compound 46, Pyrrolidin-1-yl(2-(thiophen-2-yl)benzo[d]oxazol-6-yl)methanone]	31.5 nM	29.2 ± 0.64 nM	0.33	84.3 nM	87.5 ± 13.6 nM	–	–
O=C(c1ccc2nc(-c3ccccc3)oc2c1)N1CCCC1 [Compound 10]	35.7 nM	46.5 ± 6.59 nM	1.27	51.4 nM	36.6 ± 11 nM	–	–

Structure (SMILES)	IC50 (AChE)	Ki (AChE)	Selectivity index (AChE/BChE) (AChE)	IC50 (BChE)	Ki (BChE)	type of inhibition, AChE (AChE)	type of inhibition, BChE (BChE)
O=C(c1ccc2nc(-c3cccc4ccccc34)oc2c1)N1CCCCC1 [Compound 23]	24.6 nM	20.2 ± 1.47 nM	0.29	98.3 nM	69.4 ± 11.3 nM	–	–
CCN(CC)C(=O)c1ccc2nc(-c3ccco3)oc2c1 [Compound 38, N,N-diethyl-2-(furan-2-yl)benzo[d]oxazole-6-carboxamide]	52.8 nM	41.2 ± 7.41 nM	0.69	70.4 nM	59.4 ± 8.01 nM	–	–
O=C(c1ccc2nc(-c3ccccc3)oc2c1)N1CCOCC1 [Compound 12]	29.6 nM	28.6 ± 3.96 nM	0.88	34.5 nM	32.3 ± 3.25 nM	–	–
CN(C)C(=O)c1ccc2nc(-c3cccs3)oc2c1 [Compound 43, N,Ndimethyl-2-(thiophen-2-yl)benzo[d]oxazole-6-carboxamide]	29.2 nM	19.9 ± 0.73 nM	0.17	130 nM	120 ± 25.7 nM	–	–
CCCN(CCC)C(=O)c1ccc2nc(-c3ccncc3)oc2c1 [Compound 27, N,Ndipropyl-2-(pyridin-4-yl)benzo[d]oxazole-6-carboxamide]	49.5 nM	50 ± 5.13 nM	0.72	87.1 nM	69.7 ± 4.1 nM	–	–
CCN(CC)C(=O)c1ccc2nc(-c3cccc4ccccc34)oc2c1 [Compound 20, N,Ndiethyl-2-(naphthalen-1-yl)benzo[d]oxazole-6-carboxamide]	53.6 nM	48.5 ± 9.97 nM	0.36	174 nM	136 ± 30.7 nM	–	–
O=C(c1ccc2nc(-c3ccncc3)oc2c1)N1CCCCC1 [Compound 29, Piperidin-1-yl(2-(pyridin-4-yl)benzo[d]oxazol-6-yl)methanone]	28 nM	27.4 ± 2.53 nM	–	54.1 nM	47.9 ± 8.42 nM	–	–
CCN(CC)C(=O)c1ccc2nc(-c3ccc(-c4ccccc4)cc3)oc2c1 [Compound 14]	30.8 nM	19.8 ± 3.69 nM	0.26	84.6 nM	75.3 ± 13.8 nM	–	–
CCCN(CCC)C(=O)c1ccc2nc(-c3cccc4ccccc34)oc2c1 [Compound 21, 2-(Naphthalen-1-yl)-N,Ndipropylbenzo[d]oxazole-6-carboxamide]	67 nM	71.6 ± 12 nM	0.50	188 nM	145 ± 11.2 nM	–	–
CCN(CC)C(=O)c1ccc2nc(-c3cccs3)oc2c1 [Compound 44, N,N-2-(thiophen-2-yl)benzo[d]oxazole-6-carboxamide]	27.6 nM	15.7 ± 0.85 nM	0.27	75.4 nM	61 ± 11.1 nM	–	–
CCCN(CCC)C(=O)c1ccc2nc(-c3ccco3)oc2c1 [Compound 39, 2-(Furan-2-yl)-N,N-dipropylbenzo[d]oxazole-6-carboxamide]	28 nM	38.5 ± 8.48 nM	0.59	82.2 nM	65.2 ± 8.33 nM	–	–
O=C(c1ccc2nc(-c3ccc[nH]3)oc2c1)N1CCCCC1 [Compound 35, (2-(1 H-pyrrol-2-yl)benzo[d]oxazol-6-yl)(piperidin-1-yl)methanone]	19 nM	12.3 ± 1.28 nM	0.27	49.2 nM	44.5 ± 7.43 nM	–	–
CN(C)C(=O)c1ccc2nc(-c3ccc[nH]3)oc2c1 [Compound 31, N,N-dimethyl-2-(1 H-pyrrol-2-yl)benzo[d]oxazole-6-carboxamide]	36.8 nM	30.7 ± 2.21 nM	0.73	47.3 nM	42 ± 6.32 nM	–	–
O=C(c1ccc2nc(-c3ccc[nH]3)oc2c1)N1CCCC1 [Compound 34, (2-(1 H-pyrrol-2-yl)benzo[d]oxazol-6-yl)(pyrrolidin-1-yl)methanone]	26.7 nM	15.5 ± 1.96 nM	0.32	53.2 nM	48.2 ± 2.56 nM	–	–
O=C(c1ccc2nc(-c3ccc(-c4ccccc4)cc3)oc2c1)N1CCOCC1 [Compound 18, (2-([1,1’-Biphenyl]-4-yl)benzo[d]oxazol-6-yl)(morpholino)methanone]	21.3 nM	20.9 ± 4.22 nM	0.37	65.1 nM	56.7 ± 1.57 nM	–	–
O=C(c1ccc2nc(-c3ccco3)oc2c1)N1CCOCC1 [Compound 42]	21 nM	14.6 ± 3.01 nM	0.30	58.7 nM	48.6 ± 4.55 nM	–	–
CCN(CC)C(=O)c1ccc2nc(-c3ccccc3)oc2c1 [Compound 8, N,N-diethyl-2-phenylbenzo[d]oxazole-6-carboxamide]	34 nM	30.6 ± 3.34 nM	0.40	74 nM	77 ± 5.25 nM	–	–
